“And” between values parts separate entries of the source, which are not always exact repeats. Equal values may be shown once.
Experiments:
[1] = system: liver (LV); experiment: Whole organ transcriptome (GeneChip microarray) of liver 6 h after adjuvant administration: sDEGs, hierarchical clustering; type: in vivo, C57BL/6 mice; settings: hierarchical clustering, liver; also: key: G1 (interferon signaling); G2 (metabolism of lipids and lipoproteins); G3 (response to stress); G4 (response to wounding); G5 (phosphate-containing compound metabolic process); G6 (phagosome)
[2] = system: preferentially upregulated genes in LV, SP, LN; experiment: Z-score-based differential gene expression analysis (adjuvant group- or adjuvant-associated genes, 40 module mapping, TargetMine annotation); type: in vivo, C57BL/6 mice; parameters: key to z sum, 1458589_at ---: sum of the per-gene fold-change z-scores of the triplicate samples; settings: ID, LN
Method in brief: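 Per-sample fold-change values converted to gene-wise z-scores within each organ's data set, then triplicate z-scores summed per adjuvant. Genes with summed score >3 taken as preferentially expressed; gene groups defined by combined per-adjuvant z-score thresholds (z>1 to z>3) specific to each organ.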

Compound: Nc1nc2c(ncn2[C@@H]2O[C@@H]3COP(=O)(O)O[C@H]4[C@@H](O)[C@H](n5cnc6c(=O)[nH]c(N)nc65)O[C@@H]4COP(=O)(O)O[C@H]3[C@H]2O)c(=O)[nH]1 [cdiGMP, Cyclic diguanylate monophosphate]
- adjuvant group (cluster) in LV [1]: G1
- z sum, 1428027_at LOC100653389 ([2]; Modules 26): 3.943
- z sum, 1419721_at Niacr1 ([2]; Modules 27): 3.925
- z sum, 1418424_at Tnfaip6 ([2]; Modules 29): 3.961
- z sum, 1419534_at Olr1 ([2]; Modules 29): 3.953
- z sum, 1421457_a_at Samsn1 ([2]; Modules 29): 3.927
- z sum, 1422305_at Ifnb1 ([2]; Modules 29): 3.959
- z sum, 1423028_at Ifna2 ([2]; Modules 29): 3.966
- z sum, 1425837_a_at Ccrn4l ([2]; Modules 29): 3.961
- z sum, 1436387_at C330006P03Rik///Homer1 ([2]; Modules 29): 3.967
- z sum, 1439349_at Sbno2 ([2]; Modules 29): 3.94
- z sum, 1444010_at Eif4e ([2]; Modules 29): 3.936
- z sum, 1448325_at Ppp1r15a ([2]; Modules 29): 3.957
- z sum, 1449311_at Bach1 ([2]; Modules 29): 3.924
- z sum, 1450297_at Il6 ([2]; Modules 29): 3.956
- z sum, 1455197_at Rnd1 ([2]; Modules 29): 3.976
- z sum, 1455899_x_at Socs3 ([2]; Modules 29): 3.93
- z sum, 1417252_at Ptgs2 ([2]; Modules 34): 3.953
- z sum, 1417263_at Ptgs2 ([2]; Modules 34): 3.945
- z sum, 1419132_at Tfr2 ([2]; Modules 34): 3.95
- z sum, 1421473_at Il1a ([2]; Modules 34): 3.96
- z sum, 1439981_at Tespa1 ([2]; Modules 35): 3.95
- z sum, 1441843_s_at 5230400M03Rik ([2]; Modules 35): 3.967
- z sum, 1442556_at --- ([2]; Modules 35): 3.981
- z sum, 1443414_at C78513 ([2]; Modules 35): 3.922
- z sum, 1444598_at --- ([2]; Modules 35): 3.93
- z sum, 1445534_at --- ([2]; Modules 35): 3.938
- z sum, 1446245_at --- ([2]; Modules 35): 3.919
- z sum, 1457944_at --- ([2]; Modules 35): 3.94
- z sum, 1458376_at B930025B16Rik ([2]; Modules 35): 3.963
- z sum, 1459144_at --- ([2]; Modules 35): 3.966
- z sum, 1425687_at Cflar ([2]; Modules 36): 3.968
- z sum, 1427736_a_at Ccrl2 ([2]; Modules 36): 3.958
- z sum, 1449169_at Has2 ([2]; Modules 36): 3.922
- z sum, 1453636_at Pcgf5 ([2]; Modules 36): 3.972
- z sum, 1457888_at --- ([2]; Modules 36): 3.925
- z sum, 1419508_at Ripk1 ([2]; Modules 37): 3.938
- z sum, 1421578_at Ccl4 ([2]; Modules 37): 3.99
- z sum, 1421679_a_at Cdkn1a ([2]; Modules 37): 3.98
- z sum, 1424638_at Cdkn1a ([2]; Modules 37): 3.93
- z sum, 1433508_at Klf6 ([2]; Modules 37): 3.947
- z sum, 1434350_at Csrnp1 ([2]; Modules 37): 3.966
- z sum, 1439680_at Tnfsf10 ([2]; Modules 37): 3.927
- z sum, 1448724_at Cish ([2]; Modules 37): 3.94
- z sum, 1451340_at Arid5a ([2]; Modules 37): 3.953
- z sum, 1453851_a_at Gadd45g ([2]; Modules 37): 3.961
- z sum, 1457404_at Nfkbiz ([2]; Modules 37): 3.989
- z sum, 1458589_at --- ([2]; Modules 37): 3.945
- z sum, 1422054_a_at 5kil ([2]; Modules 40): 3.92
- z sum, 1428735_at Cd69 ([2]; Modules 40): 3.941
- z-score of fold change, 1428027_at LOC100653389 ([2]; samples x1-x3, Modules 26): 1.302 and 1.534 and 1.106
- z-score of fold change, 1419721_at Niacr1 ([2]; samples x1-x3, Modules 27): 1.493 and 1.403 and 1.03
- z-score of fold change, 1418424_at Tnfaip6 ([2]; samples x1-x3, Modules 29): 1.141 and 1.631 and 1.189
- z-score of fold change, 1419534_at Olr1 ([2]; samples x1-x3, Modules 29): 1.484 and 1.094 and 1.375
- z-score of fold change, 1421457_a_at Samsn1 ([2]; samples x1-x3, Modules 29): 1.437 and 1.192 and 1.298
- z-score of fold change, 1422305_at Ifnb1 ([2]; samples x1-x3, Modules 29): 0.997 and 1.431 and 1.532
- z-score of fold change, 1423028_at Ifna2 ([2]; samples x1-x3, Modules 29): 1.076 and 1.31 and 1.58
- z-score of fold change, 1425837_a_at Ccrn4l ([2]; samples x1-x3, Modules 29): 1.34 and 1.091 and 1.529

From US20230021483A1, “[…] […] METHOD AND CLASSIFICATION OF PHARMACEUTICAL COMPONENTS BY USING TRANSCRIPTOMES” (National Institutes of Biomedical Innovation, Health and …, priority 2016, published 2023)
